Reference: publication PMC3893781, “Triterpenoid Saponins Isolated from Platycodon grandiflorum Inhibit Hepatitis C Virus Replication” (Evidence-based Complementary and Alternative Medicine : eCAM, 2013)
In brackets after ≈: the same amount, converted by molar mass. Read-outs that look alike come from different tables or passages of the source.

Legend:
[1] = system: HCV replicon cells (genotype 1b); assay: In vitro combination studies (CalcuSyn combination index); format: cell-based, HCV genotype 1b; details: in combination with PGSM; for Combination Index at EC50 / Combination Index at EC75 / Combination Index at EC90: 72 h, CalcuSyn; for Effect of combination: CI < 1 synergistic
Procedure: HCV Replicon cells were treated with various concentrations of inhibitors in twofold serial dilutions at a final dimethyl sulfoxide concentration of 1% including titrations of each of the compounds alone as reference controls. […] At three days after treatments, intracellular HCV RNA levels were determined by qRT-PCR. For the Loewe additive model, the experimental data were analyzed by using CalcuSyn (Biosoft, Ferguson, Mo.), a computer program based on the method of Chou and Talalay. A combination index (CI) value for each experimental combination was calculated by a quantitative measure of the degree of drug interaction in terms of additive effect (CI = 1), synergism (CI < 1), or antagonism (CI > 1) for a given endpoint of the effect measurement.

[2] = system: HCV subgenomic replicon (genotype 1b) in Huh7 cells; assay: Anti-HCV assay in HCV replicon cells (qRT-PCR); format: cell-based, HCV genotype 1b; details: Hepatitis C virus, Huh-7, 72 h, read-out: Inhibition of HCV RNA replication (EC50) CON1 (genotype 1b)
Procedure: Huh7 cells harboring HCV subgenomic replicon (genotype 1b) were maintained in the presence of 0.25 mg/mL G418 (Invitrogen, Carlsbad, CA). HCV replicon cells were seeded at a density of 1 × 10^4 cells/well in a 96-well plate and incubated at 37°C and 5% CO2. Following 24 h incubation, the culture medium was replaced with a medium containing serially diluted test compounds in the presence of 2% FBS and 1% DMSO. After cells were treated for 72 h with PGMS and triterpenoid saponins, total RNAs were extracted using a CellAmp Direct RNA Prep Kit (Korea Biomedical, Seoul, Korea). The HCV RNA levels were quantified by a quantitative real-time polymerase chain reaction (qRT-PCR) assay using IQ5 real-time PCR detection system (Bio-Rad, Hercules, CA, USA) with HCV-specific primers (5′-GACACTCCACCATAGATCACTC-3′ and 5′-CCC AAC ACT ACT CGG CTA G-3′) and probe (5′-FAM-CCCAAATCTCCAGGCATTGAGCGG-3′ BHQ-1). Results were normalized to glyceraldehyde-3-phosphate dehydrogenase gene (GAPDH). Anti-HCV activity was determined by HCV RNA levels in compound-treated cells as compared to mock-treated cells.

[3] = system: JFH1 viruses (HCV genotype 2a) in Huh7 cells; assay: Anti-HCV assay in HCVcc-infected cells (qRT-PCR); format: cell-based; details: Hepatitis C virus, Huh-7, 48 h, read-out: Inhibition of HCV RNA replication (EC50) JHF-1 (genotype 2a)
Procedure: Infectious JFH1 viruses (HCV genotype 2a) were generated as described previously. Huh7 cells were seeded in 24-well plates at a density of 5 × 10^4 cells per well. At 24 h after plating, cells were infected with JFH1 viruses for 2 h. After incubation, the supernatants were replaced with fresh medium. Increasing concentrations of PGMS and its triterpenoid saponins were added in a medium containing 2% DMSO, and cells were incubated at 37°C. At 48 h after infection, total RNAs were extracted and the HCV RNA levels were quantified by qRT-PCR assay. Anti-HCV activity was determined by HCV RNA levels in compound-treated cells as compared to mock-treated cells.

[4] = Cell viability assay (MTT); format: cell-based; details: human, Huh7 cells, read-out: Cytotoxicity (CC50)
Procedure: Cell viability was determined by the colorimetric 3-(4,5-dimethylthiazol-2-yl)-2,5-diphenyltetrazolium bromide (MTT) reagent (Promega Corporation) according to the manufacturer's instructions. The absorbance was detected at 570 nm using a Bio-Tek plate reader (Bio-Tek instrument, Weymouth, MA).

[5] = molecular target: T1, HCV NS5B polymerase (NS5BCΔ21) (Hepatitis C virus genotype 1b, UniProt Q9WMX2); assay: RdRp assay with recombinant HCV NS5B polymerase; format: biochemical, HCV genotype 1b
T1 construct: HCV NS5B polymerase from HCV genotype 1b carrying an N-terminal GST-tag and C-terminal 21-amino acid truncation (NS5BCΔ21); made in house; host or cells: Escherichia coli
Procedure: Recombinant HCV NS5B polymerase from HCV genotype 1b carrying an N-terminal GST-tag and C-terminal 21-amino acid truncation (NS5BCΔ21) was expressed in Escherichia coli and purified as previously described with some modifications. The colorimetric reverse transcriptase assay kit (Roche Applied Science) was applied to perform RdRp assay. The inhibition of HCV RdRp activity was determined by the amount of double-stranded RNA synthesized by the recombinant NS5BΔC21 in the presence of various test compounds using HCV 3′-UTR as a template.

HCV NS3/4A protease = molecular target: T2, HCV NS3/4A protease (Hepatitis C virus genotype 1b, UniProt Q9WMX2); assay: biochemical; format: biochemical; details: FRET peptide substrate; read-out: HCV enzyme (IC50) HCV NS3/4A
T2 construct: HCV-NS3/4A protease purified from E. coli; host or cells: E. coli
Procedure: The NS3/4A serine protease assay was performed using a HCV protease assay kit (SensoLyte, AnaSpec, Fremont, CA) according to the manufacturer's instructions. Briefly, HCV-NS3/4A protease purified from E. coli was mixed with the test compound in the assay buffer. After 15 min incubation at room temperature, EDANS/DABCYL-based fluorescence resonance energy transfer (FRET) peptide substrate solution was added and mixed. The FRET substrate was cleaved specifically by HCV NS3/4A protease, thereby liberating the C-terminal peptide-fluorophore fragment from the proximity quenching effect of the dark quencher, resulting in increase of fluorescence. The fluorescence intensity was measured immediately and continuously at excitation/emission at 340 nm and 490 nm.

[6] = system: HCV subgenomic replicon cells (genotype 1b); assay: Anti-HCV assay for 14 days; format: cell-based, HCV genotype 1b
Procedure: HCV replicon cells were plated at 2 × 10^5 cells per well in a 6-well plate. Each compound was serially diluted in DMEM containing 10% FBS and 0.2% DMSO as reported previously. Culture media were replaced with fresh medium and compounds every 3 days. Cells were harvested at 3, 6, 9, and 14 days and intracellular HCV RNA levels were analyzed by qRT-PCR. The relative copy number of HCV RNA per cell was calculated by comparing RNAs in cells treated with each compound with those RNAs in cells treated with 0.2% DMSO.

[7] = system: Huh7 cells harboring HCV subgenomic replicon (genotype 1b); assay: Colony forming assay; format: cell-based, HCV genotype 1b; details: 5 U/mL of IFN-α alone, three weeks, G418
Source text: G418 was included in the media to provide selective pressure on HCV replicon cells. After three weeks of treatment, surviving cells were stained with crystal violet [23].

[8] = read-out: HCV enzyme (IC50) HCV NS5B RdRp activity, recombinant NS5B, HCV 3′-UTR template

Row | Compound | Combination Index at EC50 [1] | Combination Index at EC75 [1] | Combination Index at EC90 [1] | Effect of combination [1] | EC50 [2] [µg/mL] | EC50 [3] [µg/mL] | CC50 [4] [µg/mL] | IC50 [5, 8] [µM] | IC50 (HCV NS3/4A protease) [µM] | IC50 [5] [µM] | Reduction of HCV RNA levels ([6]; IFN-α 10 U/mL) [log10] | Reduction of HCV RNA levels ([6]; IFN-α 50 U/mL) [log10] | Reduction of HCV RNA levels ([6]; IFN-α 100 U/mL) [log10] | Colony formation of HCV replicons [7]
1 | COC(=O)N[C@H](C(=O)N1CCC[C@H]1c1nc(-c2ccc(-c3ccc(-c4c[nH]c([C@@H]5CCCN5C(=O)[C@@H](NC(=O)OC)C(C)C)n4)cc3)cc2)c[nH]1)C(C)C [BMS790052, Daclatasvir] | 0.41 | 0.42 | 0.44 | Synergistic | – | – | – | – | – | – | – | – | – | –
2 | CC1OC(OC2C(OC(=O)C34CCC(C)(C)CC3C3=CCC5C6(C)CC(O)C(OC7OC(CO)C(O)C(OC8OC(CO)C(O)C(O)C8O)C7O)C(CO)(CO)C6CCC5(C)C3(C)CC4O)OC(CO)C2O)C(O)C(O)C1OC1OCC(O)C(O)C1O (stereo not drawn) [Deapioplatycodin D2, deapioplatycodin D2] | – | – | – | – | 0.89 (≈ 0.709 µM) | 8 (≈ 6.37 µM) | 100 (≈ 79.7 µM) | 7.97 | > 79.7 | – | – | – | – | –
3 | C[C@@H]1O[C@@H](O[C@H]2[C@H](OC(=O)[C@]34CCC(C)(C)C[C@H]3C3=CC[C@@H]5[C@@]6(C)C[C@H](O)[C@H](O[C@@H]7O[C@H](CO)[C@@H](O)[C@H](O[C@@H]8O[C@H](CO)[C@@H](O)[C@H](O)[C@H]8O)[C@H]7O)C(CO)(CO)[C@@H]6CC[C@@]5(C)[C@]3(C)C[C@H]4O)OC[C@H](O)[C@@H]2O)[C@H](O)[C@H](O)[C@H]1O[C@@H]1OC[C@@H](O)[C@H](O[C@@H]2OC[C@](O)(CO)[C@H]2O)[C@H]1O [Platycodin D2, platycodin D2] | – | – | – | – | 1.05 (≈ 0.757 µM) | 12 (≈ 8.65 µM) | 25 (≈ 18 µM) | – | > 72.1 | 4.32 | – | – | – | –
4 | CC1OC(OC2C(OC(=O)C34CCC(C)(C)CC3C3=CCC5C6(C)CC(O)C(OC7OC(COC8OC(CO)C(O)C(O)C8O)C(O)C(O)C7O)C(CO)(CO)C6CCC5(C)C3(C)CC4O)OC(CO)C2O)C(O)C(O)C1OC1OCC(O)C(OC2OCC(O)(CO)C2O)C1O (stereo not drawn) [Platycodin D3, platycodin D3] | – | – | – | – | 2.33 (≈ 1.68 µM) | 27 (≈ 19.5 µM) | 100 (≈ 72.1 µM) | 5.77 | > 72.1 | – | – | – | – | –
5 | C[C@@H]1O[C@@H](O[C@H]2[C@H](OC(=O)[C@]34CCC(C)(C)C[C@H]3C3=CC[C@@H]5[C@@]6(C)C[C@H](O)[C@H](O[C@@H]7O[C@H](CO)[C@@H](O)[C@H](O)[C@H]7O)C(CO)(CO)[C@@H]6CC[C@@]5(C)[C@]3(C)C[C@H]4O)OC[C@H](O)[C@@H]2O)[C@H](O)[C@H](O)[C@H]1O[C@@H]1OC[C@@H](O)[C@H](O[C@@H]2OC[C@](O)(CO)[C@H]2O)[C@H]1O [Platycodin D, platycodin D] | – | – | – | – | 0.35 (≈ 0.286 µM) | 3 (≈ 2.45 µM) | 25 (≈ 20.4 µM) | – | > 81.6 | 4.08 | – | – | – | –
6 | CC(C)(C)OC(=O)N[C@H]1CCCCC/C=C\[C@@H]2C[C@@]2(C(=O)NS(=O)(=O)C2CC2)NC(=O)[C@@H]2C[C@@H](OC(=O)N3Cc4cccc(F)c4C3)CN2C1=O [R7227, Danoprevir] | 0.72 | 0.71 | 0.70 | Synergistic | – | – | – | – | – | – | – | – | – | –
7 | IFN-α | 0.45 | 0.39 | 0.34 | Synergistic | – | – | – | – | – | – | 0.4 | 0.8 | 1.5 | unable to inhibit colony formation
